Reference: paper PMC2912373, “Low-Density Lipoprotein Receptor-Related Protein 1 (LRP1) Mediates Neuronal Aβ42 Uptake and Lysosomal Trafficking” (PLoS ONE, 2010)

Tests used:
GT1-7 cells = assay: FAM-Aβ42 internalization after LRP1 siRNA knockdown, FACS; type: cell-based; details: 500 nM FAM-Aβ42, 37°C, 4 h, 72 h after LRP1 siRNA; FACS of pronase-treated cells
Experimental: To rule out cell type-specific effects and artifacts due to the expression of LRP1 minireceptor, we performed similar FAM-Aβ42 uptake experiments in GT1-7 neuronal cells with reduced endogenous LRP1 levels by siRNA knockdown (Fig. 3A), and in mouse embryonic fibroblasts from both wild-type (MEF1) and LRP1 knockout mice (MEF2) (Fig. 3B). GT1-7 cells were plated and treated as indicated in the Experimental Procedures and GT1-7 and MEF cells were incubated with 500 nM of FAM-Aβ42 at 37°C for 4 h. Steady-state levels of intracellular Aβ42 were determined by flow cytometric analysis of pronase-treated cells. […]
Figure 3 LRP1 mediates internalization and accumulation of Aβ42 in GT1-7 and MEF cells. […] After 72 h, cells were treated with 500 nM FAM-Aβ42 for 4 h and intracellular Aβ42 was determined by flow cytometric analyses of pronase-treated cells as described in the Experimental Procedures. […] Wild type (MEF1) and LRP1 knockout (MEF2) fibroblasts were treated with 500 nM FAM-Aβ42 for 4 h, and intracellular Aβ42 was determined by flow cytometric analyses. ** p<0.01, t-test. n = 3. C, cell lysates from GT1-7 and MEF cells treated as in A and B, analyzed by 7.5% SDS-PAGE, and Western blotted with anti-LRP1 antibodies.
For quantification of Aβ uptake experiments, stable N2a cells were plated into 12-well plates at 16,250 cells/cm^2 and grown overnight. […]

N2a-mLRP4 cells = assay: Steady-state FAM-Aβ42 accumulation (continuous feeding), FACS; type: cell-based, mouse; details: for levels of FAM-Aβ42 in N2a-mLRP4 cells compared to N2a-pcDNA3 cells: 500 nM FAM-Aβ42, 37°C, n = 3
Experimental: To determine whether internalized Aβ42 is accumulated over time, we performed continuous feeding experiments of FAM-Aβ42 in N2a-pcDNA3 and N2a-mLRP4 cells. The steady-state levels and localization of Aβ42 were determined by flow cytometry and confocal microscopy, respectively (Fig. 2). Cells were incubated with 500 nM FAM-Aβ42 at 37°C for 24, 48 or 72 h and the content of fluorescence per cell was quantified by FACS and presented as a percentage of the levels in N2a-pcDNA3 at each time point (Fig. 2A). […] Therefore, we analyzed the subcellular localization of internalized FAM-Aβ42 by confocal microscopy in N2a cells treated as before and analyzed co-localization with lysosomes. For the visualization of acidic organelles, a brief incubation with LysoTracker Red at the end of the experiment was included (Fig. 2B). After 24 h of incubation, a small amount of cell-associated Aβ42 can be detected in N2a-mLRP4 cells.
Figure 2 Increased accumulation of intracellular Aβ42 within lysosomes in LRP1 minireceptor-expressing cells. A, increased Aβ42 accumulation in LRP1 minireceptor-expressing cells. N2a-mLRP4 and N2a-pcDNA3 cells were treated with 500 nM of FAM-Aβ42 at 37°C for 24, 48 and 72 h, and steady-state levels of intracellular Aβ42 were determined by flow cytometric analyses of pronase-treated cells as described in the Experimental Procedures. […] B, increased co-localization of intracellular Aβ42 and lysosomes in N2a-mLRP4 cells. N2a-pcDNA3 and N2a-mLRP4 cells were grown in glass chamber slides and treated with 500 nM of FAM-Aβ42 at 37°C for 24, 48 and 72 h. Lysosomes were labeled with LysoTracker 30 min before the end of each incubation. Cells were then fixed and analyzed by confocal microscopy.
For quantification of Aβ uptake experiments, stable N2a cells were plated into 12-well plates at 16,250 cells/cm^2 and grown overnight. Similar to imaging assays, cells were washed twice with PBS and incubated for the indicated periods of time with pre-warmed internalization media containing 500 nM FAM -Aβ42. After incubation, cells were washed twice with PBS and non-enzymatically detached as before in 500 µL cell dissociation solution. Cells were sequentially washed once with 1 mL of cold internalization media and twice with 2 mL cold PFN. Cells were finally resuspended in PFN-1% PFA and analyzed by FACS as before. For MEF-1 and MEF-2 experiments, 5,000 cells/cm^2 were plated in 12-well plates the day before. Cells were then washed twice with PBS and incubated 4 h with pre-warmed internalization media containing 500 nM FAM-Aβ42. After completion of the incubation time, cells were processed by FACS analysis as described above for N2a cells.
LRP1 knockdown was carried out in GT1-7 cells by siRNA transfection using Lipofectamine 2000 (Invitrogen, Carlslab, CA) and 120 nM of dsRNA duplex (Ambion, Austin, TX). Briefly, cells were plated in 6-well plates the day before transfection and grown overnight. Scrambled and LRP1 siRNA duplexes were generated according to the manufacturer's instruction and complexed with Lipofectamine 2000 as previously described. FAM-Aβ42 experiments were performed 72 h after siRNA transfection and analyzed as previously described for N2a cells. For clathrin heavy chain knockdown, shRNA lentiviruses were produced in the Viral Vectors Core facility at Washington University School of Medicine. In brief, 293T cells were transfected with pLKO.1-derived constructs together with the pHR'8.2ΔR and pCMV-VSV-G packaging systems as previously described. […]

Q: What does the source list for “FAM-Aβ42: FAM-Aβ42 peptide (23526) from Anaspec; amyloid-β 42 with carboxyfluorescein at the N-terminal region”?
A: internalization of FAM-Aβ42 in cells with decreased LRP1 levels vs scrambled siRNA control (GT1-7 cells): decrease; levels of FAM-Aβ42 in N2a-mLRP4 cells compared to N2a-pcDNA3 cells (N2a-mLRP4 cells; 24 h, FACS of pronase-treated cells): slight increase; levels of FAM-Aβ42 in N2a-mLRP4 cells compared to N2a-pcDNA3 cells (N2a-mLRP4 cells; 48 h, FACS of pronase-treated cells): twice the levels; levels of FAM-Aβ42 in N2a-mLRP4 cells compared to N2a-pcDNA3 cells (N2a-mLRP4 cells; 72 h, FACS of pronase-treated cells): twice the levels; cell-associated FAM-Aβ42 in N2a-mLRP4 cells compared to N2a-pcDNA3 cells (N2a-mLRP4 cells; 500 nM, 48 h, FACS, pronase-treated and untreated cells): increases; FAM-Aβ42 uptake in clathrin knocked down cells compared to control, empty lentivirus (N2a-mLRP4 cells; N2a-mLRP4, clathrin heavy chain shRNA lentivirus, 500 nM, 48 h, FACS of pronase-treated cells): twofold decrease
